# Experimental data published in patent US12077503B2, “Substituted cyclic amides and their use as herbicides” (FMC CORPORATION, priority 2015, dated 2024).
# Experiments:
# Format in all cases: in vivo
# [1] = test system: barnyardgrass (Echinochloa crus-galli); assay: Test G Pre-Emergence Protocol; conditions: evaluated after 13 days; for plant damage rating, Barnyardgrass: 62.5 g ai/ha, 100=total damage to plant, 0=no damage to plant
# Procedure: (§1) Seeds of corn (Zea mays), giant foxtail (Setaria faberi), barnyardgrass (Echinochloa crus-galli), ivy-leaved morning glory (Ipomoea hederacea), redroot pigweed (Amaranthus retroflexus) and velvetleaf (Abutilon theophrasti) were sown in standard soil in pots. After cultivation for one day under controlled conditions in a glasshouse (at 24/16° C., day/night; 14 hours light; 65% humidity), the plants were sprayed with an aqueous spray solution derived from the formulation of the technical active ingredient in acetone/water (50:50) solution containing 0.5% Tween 20 (polyoxyethylene sorbitan monolaurate, CAS RN 9005-64-5) to give a final dose of 15.625, 62.5 or 250 g/ha of test compound.
# (§2) The test plants were then grown on under controlled conditions in a glasshouse (at 24/16° C., day/night; 14 hours light; 65% humidity) and watered twice daily. After 13 days the test was evaluated (100=total damage to plant; 0=no damage to plant). A dash (-) means no test result.
# [2] = test system: corn (Zea mays); assay: Test G Pre-Emergence Protocol; conditions: evaluated after 13 days; for plant damage rating, Corn: 62.5 g ai/ha, 100=total damage to plant, 0=no damage to plant
# Procedure: as §1, §2
# [3] = test system: giant foxtail (Setaria faberi); assay: Test G Pre-Emergence Protocol; conditions: evaluated after 13 days; for plant damage rating, Foxtail, Giant: 62.5 g ai/ha, 100=total damage to plant, 0=no damage to plant
# Procedure: as §1, §2
# [4] = test system: ivy-leaved morning glory (Ipomoea hederacea); assay: Test G Pre-Emergence Protocol; conditions: evaluated after 13 days; for Morning-glory, Ivy-leaved damage rating (100=total damage to plant; 0=no damage to plant): 15.625 g ai/ha; for plant damage rating, Morningglory, Ivy-leaved: 62.5 g ai/ha, 100=total damage to plant, 0=no damage to plant; for Morningglory, Ivy-leaved damage rating (100=total damage to plant; 0=no damage to plant): 250 g ai/ha
# Procedure: as §1, §2
# [5] = test system: redroot pigweed (Amaranthus retroflexus); assay: Test G Pre-Emergence Protocol; conditions: evaluated after 13 days; for plant damage rating, Pigweed, Redroot: 62.5 g ai/ha, 100=total damage to plant, 0=no damage to plant
# Procedure: as §1, §2
# [6] = test system: velvetleaf (Abutilon theophrasti); assay: Test G Pre-Emergence Protocol; conditions: evaluated after 13 days; for plant damage rating, Velvetleaf: 62.5 g ai/ha, 100=total damage to plant, 0=no damage to plant
# Procedure: as §1, §2
# [7] = test system: barnyardgrass (Echinochloa crus-galli); assay: Test G Post-Emergence Protocol; conditions: for Barnyardgrass damage rating: 15.625 g ai/ha, evaluated after 13 days (100=total damage to plant; 0=no damage to plant); for Barnyardgrass damage rating (100=total damage to plant; 0=no damage to plant): 62.5 g ai/ha; for Barnyardgrass damage rating (100=total damage to plant; 0=no damage to plant) / damage to plant, Barnyardgrass (100=total damage to plant; 0=no damage to plant): evaluated after 13 days; for damage to plant, Barnyardgrass (100=total damage to plant; 0=no damage to plant): 250 g ai/ha
# Procedure: as §1, with “8 days” for “one day”
# as §2
# [8] = test system: corn (Zea mays); assay: Test G Post-Emergence Protocol; conditions: for Corn damage rating: 15.625 g ai/ha, evaluated after 13 days (100=total damage to plant; 0=no damage to plant); for Corn damage rating (100=total damage to plant; 0=no damage to plant): 62.5 g ai/ha; for Corn damage rating (100=total damage to plant; 0=no damage to plant) / damage to plant, Corn (100=total damage to plant; 0=no damage to plant): evaluated after 13 days; for damage to plant, Corn (100=total damage to plant; 0=no damage to plant): 250 g ai/ha
# Procedure: as §1, with “8 days” for “one day”
# as §2
# [9] = test system: giant foxtail (Setaria faberi); assay: Test G Post-Emergence Protocol; conditions: for Foxtail, Giant damage rating: 15.625 g ai/ha, evaluated after 13 days (100=total damage to plant; 0=no damage to plant); for Foxtail, Giant damage rating (100=total damage to plant; 0=no damage to plant): 62.5 g ai/ha; for Foxtail, Giant damage rating (100=total damage to plant; 0=no damage to plant) / damage to plant, Foxtail, Giant (100=total damage to plant; 0=no damage to plant): evaluated after 13 days; for damage to plant, Foxtail, Giant (100=total damage to plant; 0=no damage to plant): 250 g ai/ha
# Procedure: as §1, with “8 days” for “one day”
# as §2
# [10] = test system: ivy-leaved morning glory (Ipomoea hederacea); assay: Test G Post-Emergence Protocol; conditions: for Morningglory, Ivy-leaved damage rating: 15.625 g ai/ha, evaluated after 13 days (100=total damage to plant; 0=no damage to plant); for Morningglory, Ivy-leaved damage rating (100=total damage to plant; 0=no damage to plant): 62.5 g ai/ha; for Morningglory, Ivy-leaved damage rating (100=total damage to plant; 0=no damage to plant) / damage to plant, Morningglory, Ivy-leaved (100=total damage to plant; 0=no damage to plant): evaluated after 13 days; for damage to plant, Morningglory, Ivy-leaved (100=total damage to plant; 0=no damage to plant): 250 g ai/ha
# Procedure: as §1, with “8 days” for “one day”
# as §2
# [11] = test system: redroot pigweed (Amaranthus retroflexus); assay: Test G Post-Emergence Protocol; conditions: for Pigweed, Redroot damage rating: 15.625 g ai/ha, evaluated after 13 days (100=total damage to plant; 0=no damage to plant); for Pigweed, Redroot damage rating (100=total damage to plant; 0=no damage to plant): 62.5 g ai/ha; for Pigweed, Redroot damage rating (100=total damage to plant; 0=no damage to plant) / damage to plant, Pigweed, Redroot (100=total damage to plant; 0=no damage to plant): evaluated after 13 days; for damage to plant, Pigweed, Redroot (100=total damage to plant; 0=no damage to plant): 250 g ai/ha
# Procedure: as §1, with “8 days” for “one day”
# as §2
# [12] = test system: velvetleaf (Abutilon theophrasti); assay: Test G Post-Emergence Protocol; conditions: for Velvetleaf damage rating: 15.625 g ai/ha, evaluated after 13 days (100=total damage to plant; 0=no damage to plant); for Velvetleaf damage rating (100=total damage to plant; 0=no damage to plant): 62.5 g ai/ha; for Velvetleaf damage rating (100=total damage to plant; 0=no damage to plant) / damage to plant, Velvetleaf (100=total damage to plant; 0=no damage to plant): evaluated after 13 days; for damage to plant, Velvetleaf (100=total damage to plant; 0=no damage to plant): 250 g ai/ha
# Procedure: as §1, with “8 days” for “one day”
# as §2
SMILES,Barnyardgrass damage rating (100=total damage to plant; 0=no damage to plant) ([1]; 15.625 g ai/ha),"plant damage rating, Barnyardgrass [1]",Barnyardgrass damage rating (100=total damage to plant; 0=no damage to plant) ([1]; 250 g ai/ha),Corn damage rating (100=total damage to plant; 0=no damage to plant) ([2]; 15.625 g ai/ha),"plant damage rating, Corn [2]",Corn damage rating (100=total damage to plant; 0=no damage to plant) ([2]; 250 g ai/ha),"Foxtail, Giant damage rating (100=total damage to plant; 0=no damage to plant) ([3]; 15.625 g ai/ha)","plant damage rating, Foxtail, Giant [3]","Foxtail, Giant damage rating (100=total damage to plant; 0=no damage to plant) ([3]; 250 g ai/ha)","Morning-glory, Ivy-leaved damage rating (100=total damage to plant; 0=no damage to plant) [4]","plant damage rating, Morningglory, Ivy-leaved [4]","Morningglory, Ivy-leaved damage rating (100=total damage to plant; 0=no damage to plant) [4]","Pigweed, Redroot damage rating (100=total damage to plant; 0=no damage to plant) ([5]; 15.625 g ai/ha)","plant damage rating, Pigweed, Redroot [5]","Pigweed, Redroot damage rating (100=total damage to plant; 0=no damage to plant) ([5]; 250 g ai/ha)",Velvetleaf damage rating (100=total damage to plant; 0=no damage to plant) ([6]; 15.625 g ai/ha),"plant damage rating, Velvetleaf [6]",Velvetleaf damage rating (100=total damage to plant; 0=no damage to plant) ([6]; 250 g ai/ha),Barnyardgrass damage rating [7],Barnyardgrass damage rating (100=total damage to plant; 0=no damage to plant) [7],also measured
COc1ccc([C@@H]2CN(C)C(=O)[C@H]2C(=O)Nc2ccccc2F)cc1[N+](=O)[O-] (racemic) [Compound 1417],0,60,80,0,0,0,0,80,90,0,0,30,0,0,30,0,0,0,10,40,"damage to plant, Barnyardgrass (100=total damage to plant; 0=no damage to plant) [7]: 60; Corn damage rating [8]: 0; Corn damage rating (100=total damage to plant; 0=no damage to plant) [8]: 10; damage to plant, Corn (100=total damage to plant; 0=no damage to plant) [8]: 20; Foxtail, Giant damage rating [9]: 0; Foxtail, Giant damage rating (100=total damage to plant; 0=no damage to plant) [9]: 70; damage to plant, Foxtail, Giant (100=total damage to plant; 0=no damage to plant) [9]: 70; Morningglory, Ivy-leaved damage rating [10]: 0; Morningglory, Ivy-leaved damage rating (100=total damage to plant; 0=no damage to plant) [10]: 20; damage to plant, Morningglory, Ivy-leaved (100=total damage to plant; 0=no damage to plant) [10]: 30; Pigweed, Redroot damage rating [11]: 20; Pigweed, Redroot damage rating (100=total damage to plant; 0=no damage to plant) [11]: 10; damage to plant, Pigweed, Redroot (100=total damage to plant; 0=no damage to plant) [11]: 30; Velvetleaf damage rating [12]: 10; Velvetleaf damage rating (100=total damage to plant; 0=no damage to plant) [12]: 20; damage to plant, Velvetleaf (100=total damage to plant; 0=no damage to plant) [12]: 20"
CN1CC(c2ccc(C(F)(F)F)cc2)C(C(=O)Nc2[nH]cnc2[N+](=O)[O-])C1=O (racemic) [Compound 1507],0,0,0,0,0,0,0,0,0,0,0,0,0,0,0,0,0,0,0,0,"damage to plant, Barnyardgrass (100=total damage to plant; 0=no damage to plant) [7]: 0; Corn damage rating [8]: 0; Corn damage rating (100=total damage to plant; 0=no damage to plant) [8]: 0; damage to plant, Corn (100=total damage to plant; 0=no damage to plant) [8]: 0; Foxtail, Giant damage rating [9]: 0; Foxtail, Giant damage rating (100=total damage to plant; 0=no damage to plant) [9]: 0; damage to plant, Foxtail, Giant (100=total damage to plant; 0=no damage to plant) [9]: 0; Morningglory, Ivy-leaved damage rating [10]: 0; Morningglory, Ivy-leaved damage rating (100=total damage to plant; 0=no damage to plant) [10]: 0; damage to plant, Morningglory, Ivy-leaved (100=total damage to plant; 0=no damage to plant) [10]: 0; Pigweed, Redroot damage rating [11]: 0; Pigweed, Redroot damage rating (100=total damage to plant; 0=no damage to plant) [11]: 0; damage to plant, Pigweed, Redroot (100=total damage to plant; 0=no damage to plant) [11]: 0; Velvetleaf damage rating [12]: 0; Velvetleaf damage rating (100=total damage to plant; 0=no damage to plant) [12]: 0; damage to plant, Velvetleaf (100=total damage to plant; 0=no damage to plant) [12]: 0"
Cc1ccc(NC(=O)C2C(=O)N(C)CC2c2ccc(C(F)(F)F)cc2)c([N+](=O)[O-])c1 (racemic) [Compound 1592],0,10,50,0,0,0,0,20,70,10,0,10,0,0,30,0,0,0,0,10,"damage to plant, Barnyardgrass (100=total damage to plant; 0=no damage to plant) [7]: 30; Corn damage rating [8]: 0; Corn damage rating (100=total damage to plant; 0=no damage to plant) [8]: 0; damage to plant, Corn (100=total damage to plant; 0=no damage to plant) [8]: 10; Foxtail, Giant damage rating [9]: 0; Foxtail, Giant damage rating (100=total damage to plant; 0=no damage to plant) [9]: 60; damage to plant, Foxtail, Giant (100=total damage to plant; 0=no damage to plant) [9]: 70; Morningglory, Ivy-leaved damage rating [10]: 0; Morningglory, Ivy-leaved damage rating (100=total damage to plant; 0=no damage to plant) [10]: 40; damage to plant, Morningglory, Ivy-leaved (100=total damage to plant; 0=no damage to plant) [10]: 60; Pigweed, Redroot damage rating [11]: 0; Pigweed, Redroot damage rating (100=total damage to plant; 0=no damage to plant) [11]: 0; damage to plant, Pigweed, Redroot (100=total damage to plant; 0=no damage to plant) [11]: 10; Velvetleaf damage rating [12]: 0; Velvetleaf damage rating (100=total damage to plant; 0=no damage to plant) [12]: 10; damage to plant, Velvetleaf (100=total damage to plant; 0=no damage to plant) [12]: 10"
